Patent US11744825B2, “Methods of treating hypersensitive cough or itching using ion channel inhibitory compounds” (AFASCI, Inc., priority 2018, dated 2023)
“And” between values parts separate entries of the source, which are not always exact repeats. Identical values can stand only once. “Also recorded” adds a separate entry of the source.

How the values were obtained:
[1] = target: T1, hCav3.2 Channel (Homo sapiens, UniProt O95180); assay: Recombinant hCav3.2 channel expressed in mammalian cells; format: cell-based; parameters: hCav3.2 Channel % Use Dep. (use dependent inhibition): concentration or dose not given beside the values
T1 construct: expressed in transfected cells
From the text: (§1) A representative panel of AFA/EX compounds was investigated on a variety of recombinant human ion channels expressed in mammalian cells and on native ion channels in dissociated rat dorsal root ganglion (DRG) neurons. […] Thus, this panel of compounds was next investigated on their effects on itching scratching behavior in two well-established itching models in mice.

[2] = target: hCav2.2 (Homo sapiens, UniProt Q00975); assay: Recombinant hCav2.2 channel expressed in mammalian cells; format: cell-based; settings: for IC50: recombinant human channel
From the text: as §1

[3] = target: hCav1.2 (Homo sapiens, UniProt Q13936); assay: Recombinant hCav1.2 channel expressed in mammalian cells; format: cell-based
From the text: as §1

[4] = test system: hiPSC INa; assay: hiPSC INa current; format: cell-based, human
[5] = target: hNav1.5 (Homo sapiens, UniProt Q14524); assay: Recombinant hNav1.5 channel expressed in mammalian cells; format: cell-based
From the text: as §1

[6] = test system: INa in rat DRG; assay: Inhibition of INa current in dissociated rat DRG neurons; format: cell-based; settings: for IC50: rat DRG neurons, read-out: Inhibition of Currents in rat DRG: INa IC50; for Na/T: ratio of INa IC50 to T-type IC50
From the text: as §1

[7] = test system: IK in rat DRG; assay: Inhibition of IK current in dissociated rat DRG neurons; format: cell-based; settings: for IC50: rat DRG neurons, read-out: Inhibition of Currents in rat DRG: IK IC50; for K/T: ratio of IK IC50 to T-type IC50
From the text: as §1

[8] = target: T2, hERG potassium (K+) channels (Homo sapiens, UniProt Q12809); assay: hERG potassium channel inhibition; format: cell-based
T2 construct: expressed in transfected cells
From the text: as §1

[9] = test system: histamine-induced itching; assay: Histamine-induced itching (neck model of itch) in mice; format: in vivo, mouse; settings: 30 mg/kg i.p., 30 min before pruritogen
Protocol: (§2) Neck model of itch was employed. Mice (C57BL/6, male, 3-4 months old) were shaved at the nape of the neck 2-3 days before experiments. On the day of behavioral testing mice were individually placed in small plastic chambers (12 cm L×9.5 W×12 H) that inserted into an ordinary homecage at least 30 min for habituation and recorded baseline of behavior using a video camera and a piezoelectric floor sensor operated by a validated homecage behavioral monitory system, SmartCage, which can monitor multiple mouse scratching behaviors simultaneously. Treatment with an individual test article (10 representative AFA-compounds, each at 30 mg/kg) or vehicle (0.5% hydroxyl propyl cellulose aqueous solution containing 2% DMSO) were intraperitoneally (i.p.) injected 30 min prior to itching induction. Mice were given an intradermal injection of 50 μl of a pruritogen, chloroquine or histamine into the nape of the neck. Immediately after the injection, mice were returned to their chambers and were continually recorded by the piezoelectric floor sensor for 30 min. Human manual scoring of itching scratch behavior in real-time and confirmed by video and/or piezoelectric recordings offline. The itch behavior was quantified by counting the number of scratches in a blinded to the treatment manner. A scratch was counted when a mouse lifted its hindpaw to scratch the shaved region and returned the paw to the floor or to the mouth for licking. The piezoelectric signals with a larger and regular waveform distinguished from normal homecage activity were analyzed off-line to objectively quantifying scratch episodes and durations.

[10] = test system: citric acid-induced cough; assay: Citric acid-induced cough in naive, conscious guinea pigs; format: in vivo, guinea pig; settings: for reduction of the number of cough events: guinea pig
Protocol: Guinea pigs (male, 280 g body weight, Hartley Crl:HA, Charles River) were maintained in temperature 21±2° C., humidity 55±10%, 12 hours on-12 hours off light cycle, with food and water ad libitum for at least 1 week before testing. Cough was induced with citric acid aerosol inhalation and cough assessment by human manual score (Gallico, Borghi et al. 1994). Individual animals were placed in a 4 L plexiglas observation chambers continuously filled with 17.5% citric acid aerosol. Animal cough counts were recorded for 5 min. Coughs can be recognized on the basis of sound associated with a rapid inspiration followed by a rapid expiration. Only the animal with cough counts >=10 times/5 min was selected for experiment. The selected animal was then randomized divided into 5 groups, n=8/group. Five days after screening test, the representative AFA-compound, EX-17 at 0, 3, 10 and 30 mg/kg were administered 30 minutes while the benchmark dextromethorphan hydrobromide (60 mg/kg, p.o.) 60 minutes prior to the citric acid inhalation, based on their PK profiles. […] The latency to the first cough has been used as an additional parameter to evaluate antitussive property.
Using the same test protocol, three more representative EX-compounds EX-128, -130 and -132 (each 30 mg/kg, p.o.) or vehicle were tested by orally administering 30 minutes while dextromethorphan hydrobromide (60 mg/kg, p.o.) 60 minutes prior to the citric acid inhalation, based on their PK profiles. […] The latencies to the first cough were increased with three compounds and the benchmark (FIG. 2B).

[11] = test system: chloroquine-induced itching; assay: Chloroquine-induced itching (neck model of itch) in mice; format: in vivo, mouse; settings: 30 mg/kg i.p., 30 min before pruritogen
Protocol: as §2

[12] = target: T3, T current in rat DRG (Rattus norvegicus, UniProt Q9EQ60); assay: Inhibition of T current in dissociated rat DRG neurons; format: cell-based; settings: read-out: Inhibition of Currents in rat DRG: T IC50
T3 construct: native ion channels in dissociated rat dorsal root ganglion (DRG) neurons; from tissue; host or cells: dissociated rat dorsal root ganglion neurons
From the text: as §1

[13] = test system: T-type Ca2+ current; settings: Avdonin et al., 2000; cited from earlier work
[14] = 30 mg/kg p.o., 30 min before citric acid
[15] = 30 mg/kg p.o., vs vehicle-treated control

hNav1.5, sequence (Q14524 whole entry): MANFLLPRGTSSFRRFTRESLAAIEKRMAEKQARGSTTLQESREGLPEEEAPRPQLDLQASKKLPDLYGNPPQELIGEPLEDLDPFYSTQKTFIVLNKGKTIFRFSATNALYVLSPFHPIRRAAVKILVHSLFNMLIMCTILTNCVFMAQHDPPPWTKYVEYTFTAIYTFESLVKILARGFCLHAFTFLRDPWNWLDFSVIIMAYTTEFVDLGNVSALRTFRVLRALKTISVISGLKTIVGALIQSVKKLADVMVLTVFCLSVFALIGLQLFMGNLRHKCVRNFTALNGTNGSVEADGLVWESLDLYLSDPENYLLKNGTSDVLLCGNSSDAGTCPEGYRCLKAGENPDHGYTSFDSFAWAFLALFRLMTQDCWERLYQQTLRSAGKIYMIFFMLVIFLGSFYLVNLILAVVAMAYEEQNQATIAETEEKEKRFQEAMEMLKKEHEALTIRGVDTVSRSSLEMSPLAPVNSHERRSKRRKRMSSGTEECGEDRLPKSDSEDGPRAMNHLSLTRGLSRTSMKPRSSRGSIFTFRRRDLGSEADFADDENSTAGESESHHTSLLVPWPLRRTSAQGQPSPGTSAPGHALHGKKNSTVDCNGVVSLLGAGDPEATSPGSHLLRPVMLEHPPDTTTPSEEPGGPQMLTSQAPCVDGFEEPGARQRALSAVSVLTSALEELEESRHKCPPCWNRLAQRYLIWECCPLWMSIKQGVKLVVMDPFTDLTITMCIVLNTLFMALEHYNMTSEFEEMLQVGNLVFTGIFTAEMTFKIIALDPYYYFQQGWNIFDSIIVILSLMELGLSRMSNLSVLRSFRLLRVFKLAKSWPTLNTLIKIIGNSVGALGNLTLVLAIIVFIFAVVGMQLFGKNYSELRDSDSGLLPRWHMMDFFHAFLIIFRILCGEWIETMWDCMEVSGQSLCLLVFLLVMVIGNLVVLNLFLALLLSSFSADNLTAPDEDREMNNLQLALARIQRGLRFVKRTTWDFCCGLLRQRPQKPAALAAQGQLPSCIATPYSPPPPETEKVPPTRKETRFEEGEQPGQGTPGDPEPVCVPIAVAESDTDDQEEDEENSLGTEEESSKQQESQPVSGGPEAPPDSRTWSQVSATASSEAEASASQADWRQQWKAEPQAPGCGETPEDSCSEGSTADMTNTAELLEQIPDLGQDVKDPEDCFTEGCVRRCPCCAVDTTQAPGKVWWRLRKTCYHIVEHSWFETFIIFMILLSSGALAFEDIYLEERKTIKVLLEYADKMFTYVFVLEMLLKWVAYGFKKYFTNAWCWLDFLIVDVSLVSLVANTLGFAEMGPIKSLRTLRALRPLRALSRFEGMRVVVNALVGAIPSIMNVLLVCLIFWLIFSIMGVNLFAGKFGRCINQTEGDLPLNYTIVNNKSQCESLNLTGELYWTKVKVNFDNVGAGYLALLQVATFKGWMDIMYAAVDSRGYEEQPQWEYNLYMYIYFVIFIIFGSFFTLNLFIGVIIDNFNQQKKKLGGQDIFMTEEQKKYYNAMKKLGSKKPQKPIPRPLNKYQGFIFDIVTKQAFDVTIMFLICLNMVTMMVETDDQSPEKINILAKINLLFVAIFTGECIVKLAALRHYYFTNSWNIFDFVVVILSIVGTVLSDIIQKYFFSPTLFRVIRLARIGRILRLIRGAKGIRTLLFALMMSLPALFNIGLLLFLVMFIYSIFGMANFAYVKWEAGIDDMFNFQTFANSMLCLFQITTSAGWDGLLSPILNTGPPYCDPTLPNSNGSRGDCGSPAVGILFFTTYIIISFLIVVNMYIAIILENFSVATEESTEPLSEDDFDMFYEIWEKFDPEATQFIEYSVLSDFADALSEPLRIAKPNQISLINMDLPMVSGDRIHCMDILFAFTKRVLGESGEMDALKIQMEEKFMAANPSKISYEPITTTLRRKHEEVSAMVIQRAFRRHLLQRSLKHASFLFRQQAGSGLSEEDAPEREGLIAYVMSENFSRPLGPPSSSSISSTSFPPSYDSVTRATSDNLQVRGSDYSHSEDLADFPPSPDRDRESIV
T3 sequence (Q9EQ60 whole entry): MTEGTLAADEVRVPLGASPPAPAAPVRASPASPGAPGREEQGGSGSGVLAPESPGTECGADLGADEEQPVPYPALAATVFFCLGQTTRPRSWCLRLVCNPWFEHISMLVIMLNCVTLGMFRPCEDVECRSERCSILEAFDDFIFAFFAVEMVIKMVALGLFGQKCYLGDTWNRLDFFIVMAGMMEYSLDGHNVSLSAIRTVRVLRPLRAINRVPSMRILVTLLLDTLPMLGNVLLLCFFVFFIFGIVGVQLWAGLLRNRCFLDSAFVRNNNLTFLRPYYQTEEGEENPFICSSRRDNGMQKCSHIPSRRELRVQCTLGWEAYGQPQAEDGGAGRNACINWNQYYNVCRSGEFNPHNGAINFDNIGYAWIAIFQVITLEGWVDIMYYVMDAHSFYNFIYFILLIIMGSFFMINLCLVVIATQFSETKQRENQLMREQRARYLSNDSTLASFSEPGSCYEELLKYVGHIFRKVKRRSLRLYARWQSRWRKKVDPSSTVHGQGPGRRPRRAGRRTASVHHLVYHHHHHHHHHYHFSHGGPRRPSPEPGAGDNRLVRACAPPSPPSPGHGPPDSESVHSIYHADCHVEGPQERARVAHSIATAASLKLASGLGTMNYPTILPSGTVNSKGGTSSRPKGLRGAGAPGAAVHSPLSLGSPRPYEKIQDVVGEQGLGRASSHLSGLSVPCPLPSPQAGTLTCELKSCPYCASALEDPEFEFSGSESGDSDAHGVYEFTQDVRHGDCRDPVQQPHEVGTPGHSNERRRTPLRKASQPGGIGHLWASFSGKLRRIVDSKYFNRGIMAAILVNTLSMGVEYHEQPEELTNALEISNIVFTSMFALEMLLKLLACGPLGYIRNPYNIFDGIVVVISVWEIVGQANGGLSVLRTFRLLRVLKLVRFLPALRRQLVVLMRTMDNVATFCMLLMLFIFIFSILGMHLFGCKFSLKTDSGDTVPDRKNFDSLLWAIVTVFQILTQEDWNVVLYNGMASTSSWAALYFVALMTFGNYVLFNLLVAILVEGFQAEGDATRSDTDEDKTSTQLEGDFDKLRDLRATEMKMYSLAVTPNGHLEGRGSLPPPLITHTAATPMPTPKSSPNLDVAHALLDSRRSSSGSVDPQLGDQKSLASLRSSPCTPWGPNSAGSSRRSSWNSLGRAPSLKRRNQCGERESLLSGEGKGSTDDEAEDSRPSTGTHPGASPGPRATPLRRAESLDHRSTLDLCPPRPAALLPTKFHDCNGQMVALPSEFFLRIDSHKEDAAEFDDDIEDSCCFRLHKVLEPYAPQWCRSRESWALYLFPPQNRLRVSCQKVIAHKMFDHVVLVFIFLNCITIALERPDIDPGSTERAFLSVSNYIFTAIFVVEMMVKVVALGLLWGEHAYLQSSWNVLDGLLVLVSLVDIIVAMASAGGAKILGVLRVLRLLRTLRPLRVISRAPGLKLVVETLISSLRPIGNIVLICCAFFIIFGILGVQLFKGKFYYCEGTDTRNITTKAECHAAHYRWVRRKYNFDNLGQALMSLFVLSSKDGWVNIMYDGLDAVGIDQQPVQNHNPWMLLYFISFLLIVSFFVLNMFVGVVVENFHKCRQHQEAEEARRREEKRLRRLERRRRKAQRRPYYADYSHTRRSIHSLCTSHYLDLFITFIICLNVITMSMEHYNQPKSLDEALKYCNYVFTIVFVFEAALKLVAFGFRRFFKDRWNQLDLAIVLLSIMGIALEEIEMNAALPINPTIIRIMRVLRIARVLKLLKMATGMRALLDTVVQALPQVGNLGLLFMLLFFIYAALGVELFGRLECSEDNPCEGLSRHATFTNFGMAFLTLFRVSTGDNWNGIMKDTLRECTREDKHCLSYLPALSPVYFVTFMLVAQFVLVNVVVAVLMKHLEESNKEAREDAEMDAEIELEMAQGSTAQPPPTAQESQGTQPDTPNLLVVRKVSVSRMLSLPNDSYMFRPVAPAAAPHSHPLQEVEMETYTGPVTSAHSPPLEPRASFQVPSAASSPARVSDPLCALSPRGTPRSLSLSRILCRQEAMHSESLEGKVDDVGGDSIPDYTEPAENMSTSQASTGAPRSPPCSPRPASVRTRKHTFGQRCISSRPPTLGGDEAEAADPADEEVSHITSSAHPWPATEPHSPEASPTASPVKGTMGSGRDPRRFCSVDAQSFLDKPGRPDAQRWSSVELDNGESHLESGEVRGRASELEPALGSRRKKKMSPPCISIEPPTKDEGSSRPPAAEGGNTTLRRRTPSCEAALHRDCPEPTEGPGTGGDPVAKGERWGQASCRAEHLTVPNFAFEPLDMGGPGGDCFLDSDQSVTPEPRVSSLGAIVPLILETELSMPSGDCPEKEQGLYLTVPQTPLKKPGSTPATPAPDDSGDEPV

Compound | IC50 [1] [µM] | hCav3.2 Channel % Use Dep. (use dependent inhibition) [1] [%] | IC50 [2] [µM] | IC50 [5] [µM] | IC50 [6] [µM] | Na/T [6] | IC50 [7] [µM] | K/T [7] | IC50 [8] [µM] | inhibition of histamine-induced itching scratching behavior [9] | hERG % at 1 μM [8] [% at] | inhibition of chloroquine-induced itching scratching behavior [11] | IC50 [4] [µM] | IC50 [12] [µM] | reduction of the number of cough events [10, 14] [%] | latency to the first cough [10, 15] | also measured
CC(C)(C)NC(=O)CN1CCC2(CC1)C[C@H]2NC(=O)C12CC3CC(CC(C3)C1)C2 [AFA-309] | 0.141 | 4.2 | 15.6 | 25.8 | > 30 | >212 | > 30 | >212 | > 30 | preferentially inhibited histamine-induced itching | – | – | – | – | – | – | IC50 [3]: > 30 µM; hiPSC INa % at 3 μM ([4]; at 3 μM): 0% at
COc1ccc2c(c1)[C@]13CCCC[C@@H]1[C@H](C2)N(C)CC3 [dextromethorphan, reference compound] | – | – | – | – | – | – | – | – | – | – | – | – | – | – | – | – | reduction of the number of cough events ([10]; 60 mg/kg p.o., 60 min before citric acid): 40.0% and 42.6%; latency to the first cough ([10]; 60 mg/kg p.o., vs vehicle-treated control): significant increases; also recorded: trend of increasing the latency, but not reaching significant difference; latency to the first cough ([10]; 60 mg/kg p.o., vs vehicle-treated control, listed as dextromethorphan hydrobromide): reached significance
O=C(NC1CC12CCN(S(=O)(=O)c1ccc(C(F)(F)F)cc1)CC2)c1cc(C(F)(F)F)cc(C(F)(F)F)c1 (stereo not shown) [AFA-358] | 1.01 | – | 0.74 | – | > 30 | >30 | > 30 | >30 | – | effective; also recorded: potent and equal efficacy | 59 | effective; also recorded: potent and equal efficacy | – | – | – | – | –
C[C@H]1CN(S(=O)(=O)c2ccc(C(F)(F)F)cc2)CCN1C(=O)c1ccc2cccnc2c1 [AFA-353] | 10.4 | – | 8.87 | – | > 100 | >10 | > 100 | >10 | – | – | 23 | – | – | – | – | – | –
CC(C)(C)NC(=O)CN1CCC2(CC1)CC2C(=O)Nc1cc(C(F)(F)F)cc(C(F)(F)F)c1 (stereo not shown) [AFA-322] | 0.138 | 25.6 | 3.09 | 23.5 | 14.3 | 103 | > 100 | >723 | 9.2 | preferentially inhibited histamine-induced itching | – | – | 51.6 | 0.15 | 15.7 | trend of increasing the latency, but not reaching significant difference | –
CC(C)(C)CCN1CCC2(CC1)CC2NC(=O)Cc1cc(C(F)(F)F)cc(C(F)(F)F)c1 (stereo not shown) [AFA-221] | 0.084 | 28.3 | – | – | 3.6 | 43 | ~30 | 357 | – | potent and equal efficacy | 31 | potent and equal efficacy | – | – | – | – | hCav2.2 % at 3 μM ([2]; at 3 μM): 47% at; inhibition of chloroquine-induced itching scratching behavior ([11]; listed as EX-31): effective; inhibition of histamine-induced itching scratching behavior ([9]; listed as EX-31): effective
COCC(=O)O[C@]1(CCN(C)CCCc2nc3ccccc3[nH]2)CCc2cc(F)ccc2[C@@H]1C(C)C [mibefradil] | – | – | – | – | – | – | – | – | – | – | – | – | – | – | – | – | more potent inhibition of the T-type than of the L-type Ca2+ current or the voltage-gated Na+ current [13]: 3-10 times
CC(C)(C)NC(=O)CN1CCC(CNC(=O)c2cc(F)cc(Cl)c2)CC1 [AFA-258, reference compound] | 0.195 | 17.6 | > 30 | > 100 | > 100 | >513 | > 100 | >513 | – | – | – | did not produce anti-itching effects | 21.4 | 0.2 | – | – | IC50 [3]: > 30 µM
CC(C)(C)CCN1CCC2(CC1)CC2N(CC1CC1)C(=O)c1cc(Cl)cc(Cl)c1 (stereo not shown) [AFA-206] | 0.067 | 8.2 | – | – | 20.3 | 303 | 6.8 | 102 | – | preferentially inhibited histamine-induced itching | 50 | – | – | – | – | – | –
CC(C)(C)NC(=O)CN1CCC2(CC1)CC2NC(=O)c1cc(F)cc(C(F)(F)F)c1 (stereo not shown) [AFA-281] | 0.179 | 13.9 | > 30 | > 100 | > 100 | >557 | > 100 | >557 | 8 | potent and equal efficacy | – | potent and equal efficacy | 31.4 | 0.6 | 33 | trend of increasing the latency, but not reaching significant difference | inhibition of chloroquine-induced itching scratching behavior ([11]; listed as EX-130): effective; inhibition of histamine-induced itching scratching behavior ([9]; listed as EX-130): effective
CC(C)(C)NC(=O)CN1CCC2(CC1)CC2NC(=O)c1cc(F)cc(Cl)c1 (stereo not shown) [AFA-279] | 0.113 | 21.3 | > 10 | 76.4 | > 100 | >1115 | > 100 | >1115 | 6.7 | did not produce anti-itching effects | – | did not produce anti-itching effects | 83.5 | 0.19 | 39.1 | trend of increasing the latency, but not reaching significant difference | –
CC(C)(C)NC(=O)CN1CCC2(CC1)CC2NC(=O)c1ccc(Cl)cc1F (stereo not shown) [EX-17] | – | – | – | – | – | – | – | – | – | – | – | – | – | – | 36.8 | reached significance; also recorded: significant increases | reduction of the number of cough events ([10]; 3 mg/kg p.o., 30 min before citric acid): 7.2%; reduction of the number of cough events ([10]; 10 mg/kg p.o., 30 min before citric acid): 23.3%; latency to the first cough ([10]; p.o., EX compounds 3-30 mg/kg, dextromethorphan 60 mg/kg): increases in the latencies of the first cough in a dose-dependent manner
